Results published in the NIST ThermoML archive (doi:10.1016/j.jct.2012.06.030).

Assay: molar heat capacity at constant pressure; xn = mol fraction of the nth substance listed
Details: 101 kPa, Liquid, Small sample (50 mg) DSC, x2 = 0

O [water] + CCCCCC[n+]1ccc2ccccc2c1.N#C[S-]
Details | molar heat capacity at constant pressure [J/K/mol]
288.15 K | 75.9
293.15 K | 75.8
298.15 K | 75.7
303.15 K | 75.7
308.15 K | 75.6
313.15 K | 75.5
318.15 K | 75.5
323.15 K | 75.4
328.15 K | 75.4
333.15 K | 75.3
338.15 K | 75.3
343.15 K | 75.3
